Measured values from the NIST ThermoML archive (doi:10.1021/je900586f).
± gives the expanded uncertainty stated by the source.

Columns and labels:
[1] = refractive index (Na D-line) (dimensionless); settings: 298.15 K; 101.33 kPa; Liquid; Standard Abbe refractometry
[2] = for mass density: 298.15 K, 101.33 kPa, Liquid, Vibrating tube method; for Normal melting temperature: Crystal
[3] = refractive index (Na D-line) (dimensionless); xn = mol fraction of the nth substance listed; settings: 298.15 K, 101 kPa, Liquid, Standard Abbe refractometry
[4] = xn = mol fraction of the nth substance listed; settings: 298.15 K, 101 kPa, Liquid, Vibrating tube method

CCCCCCCCCCO [decan-1-ol]
Settings	Normal melting temperature [°C]	mass density [kg/m3]	refractive index
[1]	–	–	1.43541 ± 0.001
[2]	7.04 ± 0.31	826.59 ± 3.8	–

CCCCCCCCCCO [decan-1-ol] + CCCCCCCCO
[3]
Settings	refractive index
x2 = 0.05	1.435 ± 0.0008
x2 = 0.0996	1.4346 ± 0.0008
x2 = 0.1996	1.434 ± 0.0008
x2 = 0.2997	1.4333 ± 0.0008
x2 = 0.4005	1.4325 ± 0.0008
x2 = 0.5006	1.4318 ± 0.0008
x2 = 0.6005	1.431 ± 0.0008
x2 = 0.7006	1.4301 ± 0.0008
x2 = 0.8002	1.4293 ± 0.0008
x2 = 0.9	1.4284 ± 0.0008
x2 = 0.9507	1.4279 ± 0.0008

CCCCCCCCO [octan-1-ol]
Settings	Normal melting temperature [°C]	mass density [kg/m3]	refractive index
[1]	–	–	1.42754 ± 0.001
[2]	-15.30 ± 0.31	821.76 ± 3.7	–

CCCCCCCCN(CCCCCCCC)CCCCCCCC [trioctylamine]
Settings	Normal melting temperature [°C]	mass density [kg/m3]	refractive index
[1]	–	–	1.44758 ± 0.001
[2]	-34.42 ± 0.31	807.46 ± 3.6	–

CCCCCCCCN(CCCCCCCC)CCCCCCCC [trioctylamine] + CCCCCCCCCCO
Settings	mass density, [4] [kg/m3]	refractive index, [3]
x1 = 0.0504	825.4 ± 0.7	1.437 ± 0.0008
x1 = 0.0998	824 ± 0.7	1.4384 ± 0.0008
x1 = 0.2002	821.6 ± 0.6	1.4406 ± 0.0008
x1 = 0.3	819.3 ± 0.6	1.4424 ± 0.0008
x1 = 0.4002	817.3 ± 0.6	1.4437 ± 0.0008
x1 = 0.501	815.4 ± 0.6	1.4448 ± 0.0008
x1 = 0.6008	813.8 ± 0.6	1.4457 ± 0.0008
x1 = 0.7007	812.3 ± 0.6	1.4464 ± 0.0008
x1 = 0.8014	810.7 ± 0.6	1.4469 ± 0.0008
x1 = 0.9022	809.2 ± 0.6	1.4473 ± 0.0008
x1 = 0.9522	808.6 ± 0.6	1.4475 ± 0.0008

CCCCCCCCN(CCCCCCCC)CCCCCCCC [trioctylamine] + CCCCCCCCO
Settings	mass density, [4] [kg/m3]	refractive index, [3]
x1 = 0.0497	820.8 ± 0.6	1.4311 ± 0.0008
x1 = 0.1	819.7 ± 0.6	1.433 ± 0.0008
x1 = 0.2	817.8 ± 0.6	1.4359 ± 0.0008
x1 = 0.3004	816 ± 0.6	1.4389 ± 0.0008
x1 = 0.4001	814.5 ± 0.6	1.4415 ± 0.0008
x1 = 0.4997	813.1 ± 0.6	1.4432 ± 0.0008
x1 = 0.6012	811.9 ± 0.6	1.4445 ± 0.0008
x1 = 0.701	810.7 ± 0.6	1.4453 ± 0.0008
x1 = 0.8002	809.7 ± 0.6	1.4461 ± 0.0008
x1 = 0.8962	808.7 ± 0.6	1.447 ± 0.0008
x1 = 0.9496	808.1 ± 0.6	1.4474 ± 0.0008
